Experiment [1] deals with basophils. Briefly: Basophil histamine release assay. It counts as cell-based, human. The protocol: Assessment of the effect of a compound of the invention on basophil function was tested using a conventional histamine release assay, generally in accordance with the method described in Miura et al., J Immunol, 162:4198-206 (1999). Briefly, enriched basophils were preincubated with test compounds at several concentrations from 0.1 nM to 1,000 nM, for 10 min at 37° C. Then, polyclonal goat antihuman IgE (0.1 μg/mL) or fMLP was added, and allowed to incubate for an additional 30 min. Histamine released into the supernatant was measured using an automated fluorometric technique. Two compounds were tested, shown below.

Experiment [2] has as its system T cells. The experiment is described as follows: T cell proliferation in response to costimulation of CD3+CD28. It counts as cell-based. The conditions noted are these: Homo sapiens, highest tested concentration 10 μM, read-out: Half-maximal inhibition of thymidine incorporation (anti-CD3- and anti-CD28-induced T cell proliferation). How it is done: T cell proliferation in response to costimulation of CD3+CD28 was measured. T cells were purified from healthy human blood by negative selection using antibody coated magnetic beads according to the manufacturer's protocol (Dynal) and resuspended in RPMI. The cells were treated with either DMSO or a serial dilution of D-000 in DMSO and plated at 1×10^5 cells/well on a 96-well plate precoated with goat antimouse IgG. Mouse monoclonal anti-CD3 and anti-CD28 antibodies were then added to each well at 0.2 ng/mL and 0.2 μg/mL, respectively. The plate was incubated at 37° C. for 24 hr and [^3H]-thymidine (1 μCi/well) was added. After another 18 hr incubation the cells were harvested with an automatic cell harvester, washed and the incorporated radioactivity was quantified.
(In general: Dividing cells build labelled thymidine or BrdU into new DNA.)

For experiment [3], the system named is human neutrophils. The experiment is described as follows: Superoxide production from neutrophils (cytochrome C reduction). The experiment is classed as cell-based. The protocol: Aliquots (8 mL) of heparinized blood from healthy volunteers were layered on 3 mL cushions of 7.3% FICOLL® (Sigma, St. Louis, Mo.) and 15.4% HYPAQUE® (Sigma) and centrifuged at 900 rpm for 30 min at room temperature in a table top centrifuge (Beckman). The neutrophil-rich band just above the FICOLL®-HYPAQUE® cushion was collected and washed with Hanks' balanced salt solution (HBSS) containing 0.1% gelatin. Residual erythrocytes were removed by hypotonic lysis with 0.2% NaCl. The neutrophil preparation was washed twice with HBSS containing 0.1% gelatin and used immediately.
Superoxide generation is one of the hallmarks of neutrophil activation. A variety of activators potentiate superoxide generation by neutrophils. The effect of the PI3Kδ inhibitor D-000 on superoxide generation by three different agonists: TNF1α, IgG, and fMLP, each representing separate classes of activator, was measured. Superoxide generated by the neutrophils was measured by monitoring the change in absorbance upon reduction of cytochrome C by modification of the method described by Green et al., (pp. 14.5.1-14.5.11 in Supp. 12, Curr Protocols Immunol (Eds., Colligan et al.) (1994)), as follows. Individual wells of a 96-well plate were coated overnight at 4° C. with 50 μL of 2 mg/mL solution of human fibrinogen or IgG. The wells were washed with PBS and the following reagents were added to each well: 50 μL of HBSS or superoxide dismutase (1 mg/mL), 50 μL of HBSS or TNF1α (50 ng/mL), 50 μL cytochrome C (2.7 mg/mL), and 100 μL of purified human neutrophil suspension ([…] cells/mL). The plate was centrifuged for 2 min at 200 rpm and absorbance at 550 nm was monitored for 2 hr. To measure the relative amounts of superoxide generated, values obtained from the superoxide dismutase-containing wells were subtracted from all, and normalized to the values obtained from the wells without any inhibitor.

For experiment [4], the system named is human B cells. The experiment is described as follows: Antibody production by human B cells (IgG and IgM ELISA). It counts as cell-based. The conditions noted are these: B-cell, IL-2 and PANSORBIN stimulation. The protocol:
Heparinized blood (200 mL) from healthy volunteers was mixed with an equal volume of D-PBS, layered on 10×10 mL FICOLL-PAQUE® (Pharmacia), and centrifuged at 1600 rpm for 30 min at room temperature. Peripheral blood mononuclear cells (PBMC) were collected from the FICOLL®/serum interface, overlayed on 10 mL fetal bovine serum (FBS) and centrifuged at 800 rpm for 10 min to remove platelets. After washing, cells were incubated with DYNAL® Antibody Mix (B cell kit) (Dynal Corp., Lake Success, N.Y.) for 20 min at 4-8° C. Following the removal of unbound antibody, PBL were mixed with anti-mouse IgG coated magnetic beads (Dynal) for 20 min at 4-8° C. with gentle shaking followed by elimination of labeled non-B cells on the magnetic bead separator. This procedure was repeated once more. The B cells were resuspended in RPMI-1640 with 10% FBS, and kept on ice until further use.
To study antibody production, B cells were aliquoted at 50-75×10^3 cells/well into 96-well plate with or without inhibitor, to which IL-2 (100 U/mL) and PANSORBIN® (Calbiochem) Staphylococcus aureus cells (1:90,000) were added. […] Samples from each condition (in triplicate) were removed, and analyzed for IgG and IgM, as measured by ELISA. […] Color development was stopped by H2SO4 solution, and plates were read on an ELISA plate reader.

The values that follow come from patent US20200061062A1, “INHIBITORS OF HUMAN PHOSPHATIDYLINOSITOL 3-KINASE DELTA” (ICOS Corporation, priority 2000, published 2020).

Read-outs that look alike come from different tables or passages of the source. Some results are limits rather than exact numbers.

Consider `O=c1c2ccccc2nc(CSc2ncnc3[nH]ncc23)n1-c1ccccc1Cl` [Compound D-999, 3-(2-Chlorophenyl)-2-(1H-pyrazolo[3,4-d]pyrimidin-4-ylsulfanylmethyl)-3H-quinazolin-4-one, reference compound], for which the “Efficacy in the inhibition of histamine release compared with D-026” value in experiment [1] (anti-IgE) is “less efficacious”. Further, the “Effect on histamine release, basophils stimulated with fMLP” value in experiment [1] (fMLP stimulus) is listed as “Neither compound elicited any effect”.
Regarding `O=c1c2ccccc2nc(CSc2ncnc3[nH]cnc23)n1-c1ccccc1Cl` [Compound D-000, 3-(2-chlorophenyl)-2-(9H-purin-6-ylsulfanylmethyl)-3H-quinazolin-4-one], the IC50 was greater than 10000 nM in experiment [2]; roughly 3000 nM in experiment [3] (Homo sapiens, Neutrophil, TNF stimulus, FIG. 2, read-out: Concentration reducing TNF-induced superoxide generation to its half-maximal value); roughly 7000 nM in experiment [4] (FIG. 7, read-out: Half-maximal inhibition of IgG production); roughly 1000 nM in experiment [4] (FIG. 7, read-out: Half-maximal inhibition of IgM production). For the same compound, the “Effect on superoxide generation induced by IgG” value in experiment [3] (IgG stimulus, at 10 μM, FIG. 2) was “did not have any effect”. In addition, the “Effect on fMLP-induced superoxide generation” value in experiment [3] (fMLP stimulus, FIG. 3) was “inhibited”.
